The results in this text go back to ChEMBL document CHEMBL1137034, “Synthesis of 1H-pyridin-2-one derivatives as potent and selective farnesyltransferase inhibitors” (Bioorg Med Chem Lett, 2004).

One may read the EC50 as the concentration needed to bring the measured effect to its halfway point. A lower EC50 goes with higher potency in that assay. The term IC50 denotes the concentration that gives 50% inhibition. As a reminder, the half-life is how long it takes for the measured level to halve. A higher half-life goes with slow decline. What is called bioavailability is dose-corrected exposure relative to a reference, in per cent. A low value points to little systemic uptake.

Where only a bound is given, the exact number is not on record here.

Data set [1] concerns the target Protein farnesyltransferase (Mus musculus, UniProt Q61239+Q8K2I1). Kind of data set: Reduced farnesylation of H-ras transformed NIH3T3 cells. It counts as functional, cell-based.
In data set [2] the target is T1, Geranylgeranyl transferase type I (Bos taurus, UniProt P29702+Q5EAD5). In words: inhibitory concentration needed to reduce the bovine GGTase-catalyzed incorporation of […] into a biotin-linked K-ras (B) decapeptide. It counts as protein-complex assay.
Data set [3] can be described thus: Inhibition of [3H]FPP incorporation into biotin-linked K-ras decapeptide (CVIM) by bovine farnesyltransferase. Further details: species or system Bos taurus.
Data set [4] addresses T1, Geranylgeranyl transferase type I. Kind of data set: Inhibition of [3H]FPP incorporation into biotin-linked K-ras decapeptide (CVLL) by bovine geranylgeranyltransferase. It counts as protein-complex assay.
Data set [5] can be described thus: Inhibition of [3H]-FPP incorporation into biotin-linked K-ras decapeptide (CVIM) by bovine farnesyltransferase. Further details: species or system Bos taurus.
A short description of data set [6]: Half life in dog. The class given is ADME, Canis lupus familiaris. Particulars: in vivo.
A short description of data set [7]: Plasma clearance was determined. The class given is ADME, organism-based, Canis lupus familiaris. Particulars: dog, in vivo.
Data set [8] in a line: Oral bioavailability in dog. The class given is ADME, organism-based, Canis lupus familiaris. Particulars: in vivo.

In data set [1], `Cn1cncc1C(OCc1c(-c2cccc(Cl)c2)cc(C#N)c(=O)n1C)c1ccc(C#N)cc1` (configuration not stated) returned an EC50 of 0.5 nM. Moreover, the IC50 in data set [2] was 2.7 nM; in data set [3], 0.44 nM.
In the same order, the values of `Cn1cncc1C(OCc1ccc(C#N)cc1-c1cccc(Cl)c1)c1ccc(C#N)cc1` (configuration not stated) are 5.2 nM, 1.3 nM and 0.87 nM.
For `Cn1cncc1C(OCc1c(-c2cccc(C(F)(F)F)c2)cc(C#N)n(C)c1=O)c1ccc(C#N)cc1` (configuration not stated), the IC50 in data set [2] worked out at 3600 nM; in data set [3], 7.5 nM.
In turn, `Cn1cncc1C(OCc1cn(Cc2cccc(F)c2)c(=O)cc1-c1cccc(Cl)c1)c1ccc(C#N)cc1` (configuration not stated) gave an EC50 in data set [1] of 15 nM. In addition, the IC50 in data set [2] is 2000 nM; in data set [3], 2.1 nM.
With `Cn1cncc1C(OCc1cn(C)c(=O)cc1-c1cccc(Cl)c1)c1ccc(C#N)cc1` (configuration not stated), the concentration for half-maximal inhibition (IC50) was over 10000 nM in data set [2] and 12 nM in data set [3].
`Cn1cncc1C(OCc1c[nH]c(=O)cc1-c1cccc(Cl)c1)c1ccc(C#N)cc1` (configuration not stated): the IC50 in data set [2] was found to be 6200 nM.
With `Cn1cncc1C(OCc1cn(Cc2cccnc2Br)c(=O)cc1-c1cccc(Cl)c1)c1ccc(C#N)cc1` (configuration not stated), the IC50 in data set [2] was 6600 nM; in data set [3], 3 nM.
The compound `Cn1cncc1C(OCc1c(-c2cccc(Cl)c2)cc(C#N)n(C)c1=O)c1ccc(C#N)cc1` (configuration not stated) registered an EC50 in data set [1] of 11.4 nM. Further, the IC50 was over 10000 nM in data set [2] and 1.2 nM in data set [3].
As to `Cn1cncc1C(OCc1cn(Cc2ccc(C#N)cc2)c(=O)cc1-c1cccc(Cl)c1)c1ccc(C#N)cc1` (configuration not stated), the IC50 was over 10000 nM in data set [4] and 5 nM in data set [5].
In data set [1], `Cn1cncc1C(OCc1cn(Cc2cccc(Cl)c2)c(=O)cc1-c1cccc(Cl)c1)c1ccc(C#N)cc1` (configuration not stated) came in with an EC50 of 10 nM. The values for the half-inhibitory concentration (IC50) in data set [2] and in data set [3] were 1200 nM and 2.1 nM, respectively.
In data set [1], `Cn1cncc1C(OCc1cn(Cc2cccc(C#N)c2)c(=O)cc1-c1cccc(Cl)c1)c1ccc(C#N)cc1` (configuration not stated) yielded an EC50 of 9 nM. The results for the 50% inhibitory concentration (IC50) in data set [2] and in data set [3] were 1900 nM and 1.3 nM, respectively. In data set [6], the half-life was 1.4 h. Besides, the Plasma clearance in data set [7] came to 8.83 mL/min/kg. The same compound came in with a bioavailability in data set [8] of 47%.
Take `Cn1cncc1C(OCc1cn(CC#N)c(=O)cc1-c1cccc(Cl)c1)c1ccc(C#N)cc1` (configuration not stated): the IC50 in data set [2] is over 10000 nM; in data set [3] it was 19 nM.
In the case of `Cn1cncc1C(OCc1c(-c2cc(Cl)cc(Cl)c2)cc(C#N)n(C)c1=O)c1ccc(C#N)cc1` (configuration not stated), in data set [1], the EC50 is 15 nM. Further, the IC50 amounted to 9400 nM in data set [2] and 1.1 nM in data set [3].
With `Cn1cncc1C(OCc1cn(Cc2ccccc2C#N)c(=O)cc1-c1cccc(Cl)c1)c1ccc(C#N)cc1` (configuration not stated), the IC50 in data set [2] was found to be 7700 nM; in data set [3] it was 2.3 nM.
